Data reported in publication PMC6199279, “Design of Peptoid-peptide Macrocycles to Inhibit the β-catenin TCF Interaction in Prostate Cancer” (Nature Communications, 2018).
Like-named read-outs stand apart in the source and are kept apart here. Numbered stars: 1 amine (or outer) side, 2 acyl side, 3 side chain; on linkers, the order of the positions; unused ones are H or OH. Square brackets hold non-standard residues; d marks the D form. Peptide text beside a SMILES is read from it. N(2-(2-PhOPh)Et)Gly = O=C(O)CNCCc1ccccc1Oc1ccccc1; Gly(N-3,5-(OMe)2-Ph) = COc1cc(NCC(=O)O)cc(OC)c1; X1 = COc1ccc([C@H](C)N(CC(=O)[*:2])[*:1])cc1; N((CH2)3OiPr)Gly = CC(C)OCCCNCC(=O)O

Legend:
LNCaP-abl spheroids = system: LNCaP-abl spheroids
Method: To evaluate the impact of the compounds under 3D cell culture conditions thought to be more representative of tumors, we grew LNCaP-abl cells in low attachment plates. The effects on spheroid formation and growth were evaluated following treatment with vehicle, 13, or linear 13 administered at the time of seeding at low cell density in a 384-well plate. In a separate experiment, to test the impact on pre-formed spheroids, cells were treated 5 days after initial seeding. Spheroids from both experiments were grown for 22 days, with compound refreshed on days 5, 9, 13, 16, and 20. […] PrestoBlue was used to measure cell viability on day 22 (Fig. 5b). […] Figure 5c–f depicts spheroid area over time based on size measurements from the images taken throughout the experiment.
Scale bar represents 400 μm. b End point viability measurements taken on day 22 using PrestoBlue. c–f Time course of spheroid areas calculated from images taken throughout the experiment.
LNCaP-abl cells were seeded into 384-well ultra-low attachment plates (Corning), 1000 cells/well. Varying concentrations of compound were added either on the same day as seeding or on day 5. Media was changed every 3–4 days using a Biotek automated media exchanger. Images were taken using an ArraySca VTI (Cellomics) on days 5, 9, 13, 16, 20, and 22. Images were analyzed for spheroid area with the HCS Studio Cellomics Scan Version 6.6.0 (Thermo) software. A final viability measurement was taken on day 22 using PrestoBlue reagent (Thermo).

LNCaP-95 cells = conditions: read-out: IC50 proliferation, LNCaP-95; 5 days of treatment
Method: (§1) To test the effect of 13 in a model of prostate cancer, we used the LNCaP-abl and LNCaP-95 cell lines. These cell lines were derived from androgen-sensitive LNCaP cells, and passaged in androgen-deprived media to mimic the development of castration resistance in patient tumors[54],[55]. We first isolated mRNA from LNCaP-abl and LNCaP-95 cells treated with vehicle, 10 µM 13 and linear 13 for 24 h to check the expression of endogenous Wnt and AR target genes (Fig. 4a). […] AR-V7 is particularly challenging to target as most AR antagonists target the ligand binding domain. […] To check if the changes in Wnt and AR target gene expression translated into effects on growth, the viability of LNCaP-abl and LNCaP-95 cells was determined after 5 days of treatment (Fig. 4b).
(§2) Data are presented as mean and SD (n = 3) of three independent experiments (a) or representative of three independent experiments (b, c).
(§3) LNCaP-abl and LNCaP-95 cells were cultured in indicator free RPMI 1640 media (Life) supplemented with 10% charcoal stripped FBS, 1% pennicillin/streptomycin, and 1% L-Glutamine. […] Both were measured using the ONE-Glo detection kit (Promega) and data is standardized to CellTiter-Fluor (Promega) viability readings to account for potential variations in well to well cell number. […] Total protein concentration in cell lysates were determined using Pierce Rapid Gold BCA Protein Assay Kit (Thermo). […]

LNCaP-abl cells = conditions: read-out: IC50 proliferation, LNCaP-abl; 5 days of treatment
Method: as §1, §2, §3

COc1ccc([C@H](C)N2CC(=O)N[C@H](C)C(=O)N(CCc3ccccc3Oc3ccccc3)CC(=O)N(c3cc(OC)cc(OC)c3)CC(=O)N(CCCOC(C)C)CC(=O)N([C@@H](C)c3ccc(OC)cc3)CC2=O)cc1 [Compound 13] (cyclo([dA][N(2-(2-PhOPh)Et)Gly][Gly(N-3,5-(OMe)2-Ph)][N((CH2)3OiPr)Gly][X1][X1]))
Spheroid growth, compound added day 0 (LNCaP-abl spheroids; 0.5 µM): slowed growth
Spheroid formation, compound added day 0 (LNCaP-abl spheroids; 20 µM, 10 µM, 5 µM, 2 µM and 1 µM): prevented spheroid formation
Growth of pre-formed spheroids, treatment started day 5 (LNCaP-abl spheroids; at or above 2 µM): stalled the growth of pre-formed spheroids
Spheroid growth, low concentrations (LNCaP-abl spheroids; between 0.001 µM and 0.1 µM): little effect
IC50 (LNCaP-abl spheroids; read-out: IC50 spheroid proliferation, treatment started Day 0, PrestoBlue viability on day 22, compound added at seeding): 0.694 µM
IC50 (LNCaP-abl spheroids; read-out: IC50 spheroid proliferation, treatment started Day 5, PrestoBlue viability on day 22, pre-formed spheroids): 1.34 µM
IC50 (LNCaP-95 cells): 0.782 µM
IC50 (LNCaP-abl cells): 0.195 µM
